From patent US20130109721A1, “FAAH Inhibitors” (Ironwood Pharmaceuticals, Inc., priority 2009, published 2013) come the findings set out here.

By IC50 is commonly meant the point on the concentration scale where inhibition reaches its midpoint.

The test concerns the target T1, FAAH (Homo sapiens, UniProt O00519).
T1 construct: FAAH activity was assayed in the respective homogenates described herein (Rat brain, Mouse brain or Human brain); tissue Analytical Biological Services (ABS), Inc; host or cells: human brain cortex membrane homogenate
T1 sequence (O00519 1-579): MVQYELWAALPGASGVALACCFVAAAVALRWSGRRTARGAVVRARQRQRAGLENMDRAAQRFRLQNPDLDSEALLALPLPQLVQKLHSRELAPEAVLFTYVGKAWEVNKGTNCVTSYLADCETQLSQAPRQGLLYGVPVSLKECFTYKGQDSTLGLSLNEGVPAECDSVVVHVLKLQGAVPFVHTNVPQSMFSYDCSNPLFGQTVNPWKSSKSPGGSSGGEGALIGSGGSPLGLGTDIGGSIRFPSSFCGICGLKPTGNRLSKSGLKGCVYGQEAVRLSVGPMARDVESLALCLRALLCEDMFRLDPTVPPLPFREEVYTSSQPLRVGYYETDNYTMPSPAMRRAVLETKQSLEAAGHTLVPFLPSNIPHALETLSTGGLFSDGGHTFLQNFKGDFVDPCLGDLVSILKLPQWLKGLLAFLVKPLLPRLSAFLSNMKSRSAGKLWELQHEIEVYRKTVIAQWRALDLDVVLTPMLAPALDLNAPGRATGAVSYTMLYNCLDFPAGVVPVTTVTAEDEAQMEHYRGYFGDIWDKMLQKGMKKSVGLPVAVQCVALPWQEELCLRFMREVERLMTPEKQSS
The experiment in a line: FAAH inhibition, human brain membrane homogenate assay. The test is classed as biochemical. The settings on record: average; FAAH extracted from human brain homogenate; read-out: Human brain FAAH Extract IC50. The method, then: About 10 g of frozen normal human brain cortex tissue was obtained (e.g., from Analytical Biological Services (ABS), Inc. (Wilmington, Del.)). The brain tissue was thawed and transferred to a large ceramic mortar on ice. 50 mL of ice-cold “homogenization buffer” (20 mM HEPES buffer, pH 7.0, with 1 mM MgCl2) was added to the mortar and the tissue was homogenized with a pestle. The homogenate was centrifuged at 36,500 g for 20 minutes at 4° C. The supernatants were discarded and the pellets were re-suspended in homogenization buffer and centrifuged as before. The supernatants were again discarded and the pellets were re-suspended in 30 mL homogenization buffer and incubated in a 37° C. water bath for 20 minutes. The homogenate was then centrifuged as before. The supernatant was discarded and the membrane pellets were re-suspended in 30 mL “resuspension buffer” (50 mM Tris-HCl buffer, pH 7.4, containing 1 mM EDTA and 3 mM MgCl2). A Bradford Protein assay was performed to determine protein concentration. The protein was aliquotted into screw cap Cryo tubes each containing ˜200 μL, flash frozen in liquid nitrogen and stored at −80° C. until used for the assay.
FAAH activity was assayed in the respective homogenates described herein (Rat brain, Mouse brain or Human brain) for certain exemplary substrate compounds using a modification of the method of Omeir et al. (1995 Life Sci 56:1999) and Fowler et al. (1997 J. Pharmacol Exp Ther 283:729). For assay of FAAH activity in rat brain membrane (RBM) homogenates, RBM homogenates (7 μg protein in 20 μL final volume of 10 mM Tris pH 6.5) were mixed with 180 μL of a mixture of the following: 2.0 μM unlabelled anandamide, 0.03 μCi radio labeled anandamide [ethanolamine 1-^3H] (40-60 Cis/mmol, product number ART-626, American Radiolabeled Chemicals, St. Louis, Mo.), 1 mg/mL Bovine Serum Albumin (fatty acid-free BSA, electrophoresis grade, Sigma, St. Louis, Mo.), 10 mM Tris-HCl (pH 6.5), and 1 mM EDTA in the presence and absence of test compounds (vehicle was DMSO at a final concentration of 1%) and incubated for 10 minutes at 37° C. Samples were placed on ice to terminate the reactions.
^3H-ethanolamine product and un-reacted ^3H-anandamide substrate were then separated either: (1) by using chloroform/methanol extraction or (2) by passing the reaction mixture through a glass fiber filter containing activated charcoal. Samples were extracted with chloroform/methanol by adding 0.4 mL of chloroform/methanol (1:1 v/v), vigorously mixing the samples, and separating the aqueous and organic phases by centrifugation. Radioactivity (corresponding to FAAH-catalyzed breakdown of ^3H-anandamide) found in aliquots (0.2 mL) of the aqueous phase was determined by liquid scintillation counting with quench correction. IC50 values were determined as described by Jonsson et al. (2001 Br. J. Pharmacol. 133:1263). Alternatively, reactions were purified using a modification of the solid-phase extraction method described by Wilson et al (2003 Anal. Biochem. 318:270). This method was modified as follows: after reactions were incubated at 37° C. for 10 minutes and chilled on ice, the reaction mixtures were acidified by adding 10 μL of sodium phosphate solution [0.5M (pH 2.0)]. Next, 90 μL aliquots of the acidified reaction mixtures were applied to activated charcoal (that had been previously washed with methanol as described by Wilson et al. (supra)) containing 80 μL of water on top of a glass fiber filter, centrifuged, and the radioactivity in the eluate was counted as described previously by Wilson et al. (supra).
Table 1 provides activity data for certain compounds tested for inhibition of FAAH using the FAAH rat, mouse and human brain homogenate assays. […]
Regarding `Cc1cc(C(=O)C(=O)Nc2cccnc2)c(C)n1Cc1ccc(Cl)cc1` [Compound I-31, 2-(1-(4-chlorobenzyl)-2,5-dimethyl-1H-pyrrol-3-yl)-2-oxo-N-(pyridin-3-yl)acetamide], the IC50 stood at 3200 nM.

For `Cc1cc(C(=O)C(=O)Nc2ccncc2)c(C)n1Cc1ccc(Cl)cc1` [Compound I-30, 2-(1-(4-chlorobenzyl)-2,5-dimethyl-1H-pyrrol-3-yl)-2-oxo-N-(pyridin-4-yl)acetamide], the IC50 is 3400 nM.

`COc1cc(NC(=O)C(=O)c2cc(C)n(Cc3ccc(Cl)cc3)c2C)ccn1` [Compound I-01, 2-(1-(4-chlorobenzyl)-2,5-dimethyl-1H-pyrrol-3-yl)-N-(2-methoxypyridin-4-yl)-2-oxoacetamide]: the IC50 is 542 nM.

For `COc1cc(NC(=O)C(=O)c2cc(-c3ccccc3)n(Cc3ccc(Cl)cc3)c2C)ccn1` [Compound I-27, 2-(1-(4-chlorobenzyl)-2-methyl-5-phenyl-1H-pyrrol-3-yl)-N-(2-methoxypyridin-4-yl)-2-oxoacetamide], the IC50 was over 50000 nM.

`COc1cc(NC(=O)C(=O)c2cc(C)n(Cc3ccc(F)cc3)c2C)ccn1` [Compound I-17, 2-(1-(4-fluorobenzyl)-2,5-dimethyl-1H-pyrrol-3-yl)-N-(2-methoxypyridin-4-yl)-2-oxoacetamide]: the IC50 is 1220 nM.

Take `Cc1cc(C(=O)C(=O)Nc2ccnc(Cl)c2)c(C)n1Cc1ccc(Cl)cc1` [Compound I-28, 2-(1-(4-chlorobenzyl)-2,5-dimethyl-1H-pyrrol-3-yl)-N-(2-chloropyridin-4-yl)-2-oxoacetamide]: the IC50 stood at 897 nM.

`Cc1cc(C(=O)C(=O)Nc2ccccc2)c(C)n1Cc1ccc(Cl)cc1` [Compound I-32, 2-(1-(4-chlorobenzyl)-2,5-dimethyl-1H-pyrrol-3-yl)-2-oxo-N-phenylacetamide]: the IC50 was over 5000 nM.

Turning to `Cc1c(C(=O)C(=O)Nc2ccncc2)c2cc(Cl)sc2n1Cc1ccc(Cl)cc1` [Compound I-02, 2-(2-chloro-6-(4-chlorobenzyl)-5-methyl-6H-thieno[2,3-b]pyrrol-4-yl)-2-oxo-N-(pyridin-4-yl)acetamide], the IC50 is 97 nM.

On to `Cc1c(C(=O)C(=O)Nc2cccc(Cl)c2)c2sccc2n1Cc1ccc(Cl)cc1` [Compound I-06, 2-(4-(4-chlorobenzyl)-5-methyl-4H-thieno[3,2-b]pyrrol-6-yl)-N-(3-chlorophenyl)-2-oxoacetamide], for which the IC50 was 1500 nM.

As to `Cc1cc2c(s1)c(C(=O)C(=O)Nc1ccncc1)c(C)n2Cc1ccc(Cl)cc1` [Compound I-04, 2-(4-(4-chlorobenzyl)-2,5-dimethyl-4H-thieno[3,2-b]pyrrol-6-yl)-2-oxo-N-(pyridin-4-yl)acetamide], the half-inhibitory concentration (IC50) came out at 51 nM.

In the case of `COc1cc(NC(=O)C(=O)c2c(C)n(Cc3ccc(Cl)cc3)c3sc(Cl)cc23)ccn1` [Compound I-03, 2-(2-chloro-6-(4-chlorobenzyl)-5-methyl-6H-thieno[2,3-b]pyrrol-4-yl)-N-(2-methoxypyridin-4-yl)-2-oxoacetamide], the IC50 was determined as 94 nM.

For `COc1cc(NC(=O)C(=O)c2c(C)n(Cc3ccc(Cl)cc3)c3cc(C)sc23)ccn1` [Compound I-05, 2-(4-(4-chlorobenzyl)-2,5-dimethyl-4H-thieno[3,2-b]pyrrol-6-yl)-N-(2-methoxypyridin-4-yl)-2-oxoacetamide], the IC50 was 4 nM.

Turning to `COc1cc(NC(=O)C(=O)c2c(C)n(Cc3ccc(Cl)cc3)c3ccsc23)ccn1` [Compound I-07, 2-(4-(4-chlorobenzyl)-5-methyl-4H-thieno[3,2-b]pyrrol-6-yl)-N-(2-methoxypyridin-4-yl)-2-oxoacetamide], the IC50 came out at 18 nM.
